Assay results from ChEMBL document CHEMBL1201862, “PubChem BioAssay data set” (2004).
Calls of active or inactive are those of the source.

Experiments:
CAAX prenyl protease 2 = biological target: T1, CAAX prenyl protease 2 (Saccharomyces cerevisiae S288c, UniProt Q03530); assay type: biochemical
T1 sequence (Q03530 whole entry): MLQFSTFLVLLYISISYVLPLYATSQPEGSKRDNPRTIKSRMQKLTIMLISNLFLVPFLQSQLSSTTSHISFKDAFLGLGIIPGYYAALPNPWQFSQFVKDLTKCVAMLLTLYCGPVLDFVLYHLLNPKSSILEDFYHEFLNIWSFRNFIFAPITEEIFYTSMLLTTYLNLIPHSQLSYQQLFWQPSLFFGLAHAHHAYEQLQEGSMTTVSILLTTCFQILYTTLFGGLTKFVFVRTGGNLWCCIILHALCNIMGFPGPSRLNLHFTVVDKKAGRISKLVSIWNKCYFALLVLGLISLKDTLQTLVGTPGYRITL

Trypsin = Trypsin (Sus scrofa, UniProt P00761); experiment: porcine trypsin inhibitors, dose response, selectivity assay for Rce1 protease inhibitor project, biochemical, quenched peptide fluorescence, cherry-pick (AID 488789)
Trypsin, sequence (P00761 whole entry): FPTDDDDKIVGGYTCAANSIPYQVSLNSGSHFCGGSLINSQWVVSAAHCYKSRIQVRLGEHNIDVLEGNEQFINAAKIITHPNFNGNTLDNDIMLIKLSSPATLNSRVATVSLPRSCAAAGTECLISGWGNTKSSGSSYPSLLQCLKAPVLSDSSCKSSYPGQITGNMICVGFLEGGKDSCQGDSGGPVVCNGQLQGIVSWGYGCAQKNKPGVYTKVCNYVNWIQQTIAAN

[1] = biological target: DNA dC->dU-editing enzyme APOBEC-3G (Homo sapiens, UniProt Q9HC16); experiment: Dose Response confirmation of small molecule APOBEC3G DNA Deaminase Inhibitors via a fluorescence-based single-stranded DNA deaminase assay. [Related pubchem assays (depositor defined):AID493012, AID493028]; assay type: functional
DNA dC->dU-editing enzyme APOBEC-3G, sequence (Q9HC16 whole entry): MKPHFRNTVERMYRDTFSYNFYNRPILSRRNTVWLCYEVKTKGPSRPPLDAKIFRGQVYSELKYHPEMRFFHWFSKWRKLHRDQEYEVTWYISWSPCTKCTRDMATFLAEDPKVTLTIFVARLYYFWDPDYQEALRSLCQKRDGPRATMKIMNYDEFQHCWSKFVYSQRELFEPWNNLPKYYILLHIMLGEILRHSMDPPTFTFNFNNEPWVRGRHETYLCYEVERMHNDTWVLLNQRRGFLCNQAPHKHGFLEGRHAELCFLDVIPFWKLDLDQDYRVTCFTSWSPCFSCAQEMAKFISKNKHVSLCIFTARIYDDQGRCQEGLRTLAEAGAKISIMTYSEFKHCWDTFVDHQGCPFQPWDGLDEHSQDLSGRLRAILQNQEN

[2] = biological target: DNA dC->dU-editing enzyme APOBEC-3A (Homo sapiens, UniProt P31941); experiment: APOBEC3A DNA deaminase inhibitors, dose response, biochemical (AID 504722); assay type: functional
DNA dC->dU-editing enzyme APOBEC-3A, sequence (P31941 whole entry): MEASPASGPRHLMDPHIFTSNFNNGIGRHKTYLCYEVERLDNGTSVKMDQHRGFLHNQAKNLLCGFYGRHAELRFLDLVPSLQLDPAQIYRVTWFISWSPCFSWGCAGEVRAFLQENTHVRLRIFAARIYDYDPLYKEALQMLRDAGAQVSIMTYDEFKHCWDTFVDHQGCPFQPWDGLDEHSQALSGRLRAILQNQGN

[3] = biological target: T2, Rac GTPase-activating protein 1 (Homo sapiens, UniProt Q9H0H5); experiment: MgcRacGAP GTPase-activating activity inhibitors, confirmation, biochemical, ADP Hunter fluorescence, primary and confirmatory (AID 624330); assay type: functional
T2 sequence (Q9H0H5 whole entry): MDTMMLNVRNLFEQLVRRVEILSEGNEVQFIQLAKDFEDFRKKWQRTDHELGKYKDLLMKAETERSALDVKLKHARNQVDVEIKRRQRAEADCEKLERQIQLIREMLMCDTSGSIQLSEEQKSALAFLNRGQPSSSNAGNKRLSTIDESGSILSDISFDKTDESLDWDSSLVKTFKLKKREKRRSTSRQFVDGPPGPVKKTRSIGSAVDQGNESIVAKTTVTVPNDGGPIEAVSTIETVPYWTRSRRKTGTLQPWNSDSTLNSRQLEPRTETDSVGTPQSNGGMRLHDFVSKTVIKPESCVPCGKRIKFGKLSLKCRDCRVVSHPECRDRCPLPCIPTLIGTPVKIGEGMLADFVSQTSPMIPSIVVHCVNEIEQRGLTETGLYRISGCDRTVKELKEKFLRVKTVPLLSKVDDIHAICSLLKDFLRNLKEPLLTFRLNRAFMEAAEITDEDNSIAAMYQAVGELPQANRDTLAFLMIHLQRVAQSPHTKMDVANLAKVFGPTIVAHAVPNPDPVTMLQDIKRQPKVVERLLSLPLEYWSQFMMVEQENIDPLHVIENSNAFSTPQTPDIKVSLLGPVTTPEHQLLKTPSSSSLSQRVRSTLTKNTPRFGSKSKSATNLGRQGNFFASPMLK

[4] = cytotoxicity in HEK-293T cells, dose response, cytotoxicity control for TCR NF-kB inhibitor project, luminescence, T-cell screen hits (AID 489026); assay type: functional, cell-based;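 further: cells exposed to compound about 14 hours before the viability readout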
[5] = biological target: T3, Short transient receptor potential channel 4 (Mus musculus, UniProt Q9QUQ5); experiment: mouse TRPC4 channel inhibitors, dose response, cell-based, HEK293 TRPC4/mu-opioid, Fluo-4 calcium (AID 434942); assay type: functional;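 further: potency of inhibitors blocking the TRPC4 calcium response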
T3 sequence (Q9QUQ5 whole entry): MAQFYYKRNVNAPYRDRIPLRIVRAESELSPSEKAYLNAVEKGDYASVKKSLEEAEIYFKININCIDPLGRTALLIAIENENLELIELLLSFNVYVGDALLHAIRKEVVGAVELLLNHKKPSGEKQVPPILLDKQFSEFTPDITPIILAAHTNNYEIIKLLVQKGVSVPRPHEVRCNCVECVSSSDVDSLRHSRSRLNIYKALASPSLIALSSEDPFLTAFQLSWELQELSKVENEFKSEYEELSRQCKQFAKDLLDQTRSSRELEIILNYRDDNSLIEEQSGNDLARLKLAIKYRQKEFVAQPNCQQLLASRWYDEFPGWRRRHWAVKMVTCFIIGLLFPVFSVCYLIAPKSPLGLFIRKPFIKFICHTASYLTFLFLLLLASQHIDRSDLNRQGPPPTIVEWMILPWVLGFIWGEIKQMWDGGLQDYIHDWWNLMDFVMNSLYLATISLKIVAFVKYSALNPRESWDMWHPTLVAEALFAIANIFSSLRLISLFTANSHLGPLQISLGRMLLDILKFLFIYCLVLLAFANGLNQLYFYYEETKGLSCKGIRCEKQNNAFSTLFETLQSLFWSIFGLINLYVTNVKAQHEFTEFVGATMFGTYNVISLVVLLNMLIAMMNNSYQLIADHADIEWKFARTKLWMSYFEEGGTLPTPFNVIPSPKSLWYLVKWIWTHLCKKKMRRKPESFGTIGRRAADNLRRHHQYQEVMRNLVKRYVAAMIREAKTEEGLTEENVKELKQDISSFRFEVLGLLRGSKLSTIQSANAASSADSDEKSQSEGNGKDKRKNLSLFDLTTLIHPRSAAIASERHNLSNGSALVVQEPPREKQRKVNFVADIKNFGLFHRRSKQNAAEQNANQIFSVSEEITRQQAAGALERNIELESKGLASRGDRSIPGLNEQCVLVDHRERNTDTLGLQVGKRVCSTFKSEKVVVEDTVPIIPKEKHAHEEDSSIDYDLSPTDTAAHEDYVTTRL

[6] = intracellular Trypanosoma cruzi inhibitors in host cells – cell-based, plate reader, cherry-pick samples, set 3, dose response (AID 651818); assay type: functional;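 further: compounds incubated with infected cells for about four days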
SUMO-activating enzyme = SUMO-activating enzyme (Homo sapiens, UniProt Q9UBT2); experiment: SUMOylation inhibitor hit validation, confirmation, SUMOylation inhibitor project, biochemical, AlphaScreen (AID 2018); assay type: functional
SUMO-activating enzyme, sequence (Q9UBE0 whole entry): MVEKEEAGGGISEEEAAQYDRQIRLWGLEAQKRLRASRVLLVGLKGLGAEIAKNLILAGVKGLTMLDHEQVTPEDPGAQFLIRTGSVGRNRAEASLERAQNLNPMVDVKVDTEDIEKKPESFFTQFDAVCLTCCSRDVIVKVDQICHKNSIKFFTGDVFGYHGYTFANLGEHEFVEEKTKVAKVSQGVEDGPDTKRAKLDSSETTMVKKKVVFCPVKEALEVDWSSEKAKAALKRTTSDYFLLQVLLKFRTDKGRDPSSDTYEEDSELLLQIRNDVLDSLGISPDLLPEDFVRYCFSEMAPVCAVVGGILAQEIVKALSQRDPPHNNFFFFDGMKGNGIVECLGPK
SUMO-activating enzyme, sequence (Q9UBT2 whole entry): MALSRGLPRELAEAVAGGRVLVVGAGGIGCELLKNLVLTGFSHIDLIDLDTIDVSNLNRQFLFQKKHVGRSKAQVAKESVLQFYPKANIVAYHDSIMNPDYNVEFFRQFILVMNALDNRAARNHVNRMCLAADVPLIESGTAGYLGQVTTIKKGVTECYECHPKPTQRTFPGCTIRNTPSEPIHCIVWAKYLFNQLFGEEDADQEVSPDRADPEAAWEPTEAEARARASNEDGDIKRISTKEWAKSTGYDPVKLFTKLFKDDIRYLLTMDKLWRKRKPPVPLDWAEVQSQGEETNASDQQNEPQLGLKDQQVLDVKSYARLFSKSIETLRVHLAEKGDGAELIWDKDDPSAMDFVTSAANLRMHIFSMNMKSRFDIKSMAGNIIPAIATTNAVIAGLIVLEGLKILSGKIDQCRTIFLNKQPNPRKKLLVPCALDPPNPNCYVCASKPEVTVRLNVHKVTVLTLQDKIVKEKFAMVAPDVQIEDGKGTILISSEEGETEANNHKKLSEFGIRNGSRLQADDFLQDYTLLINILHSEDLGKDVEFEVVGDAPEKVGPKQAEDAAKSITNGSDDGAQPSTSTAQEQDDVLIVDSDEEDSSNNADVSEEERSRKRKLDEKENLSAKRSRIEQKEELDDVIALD

Vero [7] = experiment: cells; assay type: functional; settings: Chlorocebus sabaeus
[8] = HEp-2 cell cytotoxicity, dose response, cytotoxicity control for RSV inhibitor project, HTS (AID 2410); assay type: functional; settings: human respiratory syncytial virus
Vero [9] = experiment: cells; assay type: functional, cell-based; settings: Chlorocebus sabaeus
Streptokinase A = biological target: T4, Streptokinase A (Streptococcus pyogenes serotype M1, UniProt P10520); experiment: S. pyogenes streptokinase expression inhibitors, potency, dose response, plasminogen activation absorbance, OD405 (AID 1914); assay type: functional, Streptococcus pyogenes M1 GAS;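 further: secreted streptokinase activity via plasminogen activation per viability signal from cell pellet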
T4 sequence (P10520 whole entry): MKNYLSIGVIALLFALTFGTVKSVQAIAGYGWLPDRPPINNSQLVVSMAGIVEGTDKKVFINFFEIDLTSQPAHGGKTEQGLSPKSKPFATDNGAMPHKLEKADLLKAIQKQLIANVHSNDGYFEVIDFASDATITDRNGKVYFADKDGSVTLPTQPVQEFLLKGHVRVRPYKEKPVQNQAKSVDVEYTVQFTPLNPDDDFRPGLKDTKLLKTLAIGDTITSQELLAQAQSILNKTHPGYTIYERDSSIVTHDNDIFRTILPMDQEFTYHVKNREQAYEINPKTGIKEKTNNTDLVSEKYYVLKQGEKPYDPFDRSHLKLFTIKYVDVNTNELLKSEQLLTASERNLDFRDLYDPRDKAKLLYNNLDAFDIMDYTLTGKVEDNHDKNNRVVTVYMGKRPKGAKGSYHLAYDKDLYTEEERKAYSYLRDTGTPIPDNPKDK

[10] = tested on: Streptococcus sp. 'group A'; experiment: growth inhibition of control SK(-) GAS strain, dose response, counter-screen for streptokinase expression inhibitor project, luminescence, kanamycin, BacTiterGlo, confirmation (AID 1900); assay type: functional, organism-based
Streptococcus = experiment: Group A Streptococcus viability loss, dose response, counter-screen for streptokinase expression inhibitor project, luminescence, BacTiterGlo (AID 1915); assay type: functional, organism-based;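 further: potency for reduction of bacterial viability or growth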
cells = assay type: functional
[11] = THP-1 cell cytotoxicity, dose response, cytotoxicity control for non-replicating M. tuberculosis project (AID 489025); assay type: functional
[12] = Vero E6 cell cytotoxicity, dose response, cytotoxicity control for non-replicating M. tuberculosis project, secondary assay (AID 492998); assay type: functional, VeroE6; settings: Vero C1008

SMILES: Cc1c(Cc2ccccc2)c(=O)oc2c(C)c(OCC(=O)N3CCC(C(=O)O)CC3)ccc12
- AC50 (CAAX prenyl protease 2): 10.7 µM (active)
- AC50 (Trypsin): 9.51 µM (active)

SMILES: C=CCn1c(-c2ccc([N+](=O)[O-])cc2)n[nH]c1=S
- IC50 [1]: 4.51 µM (active)
- IC50 [2]: > 100 µM (inactive)

SMILES: Cc1cc(-c2nnc(S)n2/N=C/c2sccc2C)[nH]n1
- IC50 [3]: 74.9 µM (active)
- IC50 [1]: 2.44 µM (active)
- IC50 [2]: > 100 µM (inactive)

SMILES: CCOC(=O)c1ccccc1NS(=O)(=O)c1ccc(OCC)cc1
- IC50 [4]: > 80 µM (inactive)

SMILES: CCOc1cccc(CNCCO)c1OCc1ccc(Cl)cc1
- EC50 [5]: 1.88 µM (active)

SMILES: CC(OC(=O)CNC(=O)c1ccccc1F)C(=O)Nc1nc(-c2ccccc2)cs1 (configuration not stated)
- EC50 [5]: 1.5 µM (active)

SMILES: COc1ccc(-c2nc(CC(=O)O)cs2)cc1OC
- AC50 (CAAX prenyl protease 2): 29.7 µM (active)
- AC50 (Trypsin): 6.53 µM (active)

SMILES: CCOc1ccc(S(=O)(=O)NCc2ccccn2)cc1NC(=O)c1ccccc1
- IC50 [4]: > 80 µM (inactive)

SMILES: C[C@H](CO)N1C[C@H](C)[C@@H](CN(C)S(=O)(=O)c2ccc(Cl)cc2)Oc2c(NC(=O)Nc3ccccc3)cccc2C1=O
- AC50 [6]: 6.84 µM (active)

SMILES: COC(=O)C1=C(C)N(Cc2ccccc2)C(=S)N[C@H]1c1ccccc1
- EC50 [5]: 5.96 µM (active)

SMILES: Nc1c(C(=O)Nc2ccc(Br)cc2)sc2nc(-c3ccco3)ccc12
- IC50 (SUMO-activating enzyme): 22.8 µM (active)

SMILES: Cc1ccc(S(=O)(=O)Nc2ccc3c(c2)CC(=O)N([C@H](C)CO)C[C@@H](C)[C@H](CN(C)Cc2ccccc2)O3)cc1
- AC50 [6]: 1.79 µM (active)

SMILES: C[C@@H]1CCCCO[C@@H](CN(C)CC2CCCCC2)[C@@H](C)CN([C@H](C)CO)C(=O)c2cc(NC(=O)Nc3cccc4ccccc34)ccc2O1
- AC50 [6]: 0.757 µM (active)

SMILES: O=c1c2ccccc2nc(/C=C/c2ccccc2O)n1-c1ccccc1O
- CC50 (Vero [7]): 20.4 µM (active)
- CC50 [8]: 8.96 µM (active)
- IC50 (Vero [9]): > 25 µM (active)

SMILES: CC(=O)/C(C#N)=C1\NC(=O)C(Cc2ccc(C)c(Cl)c2)S1 (configuration not stated)
- CC50 (Vero [7]): 20.6 µM (active)
- IC50 (Vero [9]): 6.72 µM (active)

SMILES: Sc1nnc(COc2ccccc2)n1/N=C/c1ccco1
- IC50 [1]: 3.38 µM (active)
- IC50 [2]: > 100 µM (inactive)

SMILES: Clc1cccc(COn2c(-c3ccc(Cl)cc3Cl)nc3ncccc32)c1
- CC50 [8]: 14.4 µM (active)
- EC50 [5]: 5.96 µM (active)

SMILES: C[C@@H]1CN([C@@H](C)CO)C(=O)c2cccc(NC(=O)Nc3ccc(C(F)(F)F)cc3)c2O[C@H]1CN(C)S(=O)(=O)c1cccs1
- AC50 [6]: 4.64 µM (active)

SMILES: Cc1ccc(CNC(=O)c2ccc([N+](=O)[O-])o2)cc1
- EC50 (Streptokinase A): 8.63 µM (active)
- EC50 [10]: 2.42 µM (active)
- EC50 (Streptococcus): 32.1 µM (active)
- IC50 (cells): 0.16 µM (active)
- CC50 [11]: 25.5 µM (active)
- CC50 [12]: 5.6 µM (active)

SMILES: Cc1cc(-c2nnc(S)n2-c2ccc(F)cc2)nn1C
- IC50 [1]: 16.2 µM (active)
- IC50 [2]: > 100 µM (inactive)

SMILES: CC(NC(=O)OC(C)(C)C)C(=O)Oc1ccc2ccc(=O)oc2c1 (configuration not stated)
- IC50 (SUMO-activating enzyme): > 100 µM (inactive)
